Results: ChEMBL document CHEMBL1132057, “Effects of 3alpha- and 3beta-galactosylated alpha-galactosylceramides on the immune system” (1999)

How the values were obtained:
Format in all cases: functional
Mus musculus [1] = organism: Mus musculus; test: Effect on the proliferation of murine spleen cells evaluated in terms of [3H]TdR uptake into the cells at a concentration of 100 ng/mL
Mus musculus [2] = organism: Mus musculus; test: Effect on the proliferation of murine spleen cells evaluated in terms of [3H]TdR uptake into the cells at a concentration of 10 ng/mL
Mus musculus [3] = organism: Mus musculus; test: Effect on the proliferation of murine spleen cells evaluated in terms of [3H]TdR uptake into the cells at a concentration of 1 ng/mL

Row | SMILES | 3H-TdR incorpolation (Mus musculus [1]) [c.p.m.] | 3H-TdR incorpolation (Mus musculus [2]) [c.p.m.] | 3H-TdR incorpolation (Mus musculus [3]) [c.p.m.]
1 | CCCCCCCCCCCCCCC[C@@H](O)[C@H](CO[C@H]1O[C@@H](CO)[C@H](O)[C@H](O)[C@@H]1O)NC(=O)CCCCCCCCCCCCC | 44395 | 44395 | 9018
2 | CCCCCCCCCCCCCCCCCCCCCC[C@@H](O)C(=O)N[C@@H](CO[C@H]1O[C@@H](CO)[C@H](O)[C@H](O)[C@@H]1O)[C@H](O)CCCCCCCCCCCCCCC | 45966 | 20283 | 9454
3 | CCCCCCCCCCCCCCC[C@@H](O[C@H]1O[C@@H](CO)[C@H](O)[C@H](O)[C@@H]1O)[C@H](CO)NC(=O)CCCCCCCCCCCCC | 6141 | 7412 | 7722
4 | CCCCCCCCCCCCCCCCCCCCCC[C@@H](O)C(=O)N[C@@H](CO[C@H]1O[C@@H](CO)[C@H](O)[C@H](O)[C@@H]1O)[C@@H](CCCCCCCCCCCCCCC)O[C@@H]1O[C@@H](CO)[C@H](O)[C@H](O)[C@@H]1O | 45036 | 13195 | 7892
5 | CCCCCCCCCCCCCCCCCCCCCC[C@@H](O)C(=O)N[C@@H](CO[C@H]1O[C@@H](CO)[C@H](O)[C@H](O)[C@@H]1O)[C@@H](CCCCCCCCCCCCCCC)O[C@H]1O[C@@H](CO)[C@H](O)[C@H](O)[C@@H]1O | 44867 | 34892 | 16138
